Measurements taken from patent publication US20190152992A1, “BENZODIOXANE DERIVATIVES AND THEIR PHARMACEUTICAL USE” (Orion Corporation, priority 2016, published 2019).
Counter-ions that a name gives are not always drawn.

Tests used:
human alpha2A receptors = target: T1, human alpha2A receptors (Homo sapiens, UniProt P08913); test: cell-based
T1 sequence (P08913 1-465): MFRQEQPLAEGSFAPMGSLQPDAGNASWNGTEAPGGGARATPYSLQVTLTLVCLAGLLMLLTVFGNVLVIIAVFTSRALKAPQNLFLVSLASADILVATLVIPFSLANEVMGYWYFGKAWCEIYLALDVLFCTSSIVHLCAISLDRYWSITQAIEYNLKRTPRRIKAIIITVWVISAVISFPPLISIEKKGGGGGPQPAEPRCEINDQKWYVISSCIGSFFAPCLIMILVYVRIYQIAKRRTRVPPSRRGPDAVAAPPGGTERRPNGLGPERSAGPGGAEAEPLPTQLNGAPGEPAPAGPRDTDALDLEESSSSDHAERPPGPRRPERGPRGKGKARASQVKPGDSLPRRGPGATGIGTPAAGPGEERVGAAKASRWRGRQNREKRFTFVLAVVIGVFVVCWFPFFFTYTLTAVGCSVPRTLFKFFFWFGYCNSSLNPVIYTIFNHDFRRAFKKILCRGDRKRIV
Procedure: (§1) Experiment 1: Determination of alpha2A and alpha2C Antagonistic Activity In Vitro
(§2) The growth medium was removed and the cells were incubated with the test compounds and the FLIPR Calcium 6 Assay reagent (Molecular Devices, CA, USA) for 2 h at 37° C. in dark. The test compounds (concentrations in cells 100 pM-10 μM) were dissolved in Probenecid-Ringer consisting of 150 mM NaCl, 3 mM KCl, 1.2 mM MgCl2, 1 mM CaCl2, 5 mM glucose, 20 mM HEPES and 2.5 mM probenecid (pH 7.4 adjusted with 1.0 M NaOH). […] All experiments were performed at 37° C. For agonism measurements the test compounds dissolved in Probenecid-Ringer were applied by FLIPR Tetra at 15 s time point. In order to determine antagonism, the cells were stimulated either with 100 nM adrenaline or noradrenaline and the test compounds were added to the cells 2 h before the experiment with the FLIPR Calcium 6 Assay reagent. […] Typically, there were four replicates at each concentration and six different dose levels. […] The minimum fluorescence value subtracted from the maximum value for each well was used in the calculations. ScreenWorks version 4.0 software was used for analyzing the results. Fitting of the antagonist dose-response results was performed with the free Hill equation and the IC50 values were fitted with IDBS XE software using model 200: y=(A+(B/(1+((x/C)̂D)))), where A is the curve maximum, B the curve minimum and C equals the EC50 value. D is slope factor (Hill). Kb was calculated with the Cheng-Prusoff equation Kb=A/((B/C)+1), where A is the IC50 of antagonist, B the concentration of agonist and C the EC50 of the agonist.

human alpha2C receptors = target: T2, human alpha2C receptors (Homo sapiens, UniProt P18825); test: Determination of alpha2C antagonistic activity in vitro (FLIPR calcium assay); settings: for Kb: Alpha 2C Adrenaline Kb, Kb calculated from IC50 with the Cheng-Prusoff equation, adrenaline as agonist, CHO cells, human alpha2C
T2 sequence (P18825 1-462): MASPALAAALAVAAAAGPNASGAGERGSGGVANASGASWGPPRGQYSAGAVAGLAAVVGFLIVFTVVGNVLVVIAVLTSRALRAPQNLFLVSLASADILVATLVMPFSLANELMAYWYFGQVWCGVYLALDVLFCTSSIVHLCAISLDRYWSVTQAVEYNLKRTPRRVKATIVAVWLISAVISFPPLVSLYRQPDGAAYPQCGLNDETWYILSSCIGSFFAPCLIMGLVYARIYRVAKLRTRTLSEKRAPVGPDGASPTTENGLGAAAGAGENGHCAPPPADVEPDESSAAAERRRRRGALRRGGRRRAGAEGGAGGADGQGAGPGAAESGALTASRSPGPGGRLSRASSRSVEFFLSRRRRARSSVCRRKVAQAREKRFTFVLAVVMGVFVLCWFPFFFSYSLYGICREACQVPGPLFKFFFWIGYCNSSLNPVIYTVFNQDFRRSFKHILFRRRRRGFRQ
Procedure: as §1, §2

IC50 (human alpha2A receptors) | Kb (human alpha2A receptors) | IC50 (human alpha2C receptors) | Kb (human alpha2C receptors) | SMILES
> 10000 nM | > 449 nM | 0.95 nM | 0.097 nM | O=C1c2cccnc2C(=O)N1[C@H]1CCCN(C[C@H]2COc3ccccc3O2)C1 [example 75, 6-((S)-1-(((S)-2,3-Dihydrobenzo[b][1,4]dioxin-2-yl)methyl)piperidin-3-yl)-5H-pyrrolo[3,4-b]pyridine-5,7(6H)-dione]
> 10000 nM | > 449 nM | 363 nM | 36.6 nM | C[C@@]1(c2ccccc2)CCN([C@H]2CCCN(C[C@H]3COc4ccccc4O3)C2)C1=O [example 15, (S)-1-((S)-1-(((S)-2,3-Dihydrobenzo[b][1,4]dioxin-2-yl)methyl)-piperidin-3-yl)-3-methyl-3-phenylpyrrolidin-2-one]
> 10000 nM | > 449 nM | 2.19 nM | 0.22 nM | O=C1C(=O)N([C@H]2CCCN(C[C@H]3COc4ccccc4O3)C2)C(=O)N1Cc1ccncc1 [example 140, 1-((S)-1-(((S)-2,3-Dihydrobenzo[b][1,4]dioxin-2-yl)methyl)piperidin-3-yl)-3-(pyridin-4-ylmethyl)imidazolidine-2,4,5-trione]
> 10000 nM | > 449 nM | 3220 nM | 324 nM | O=c1n(-c2ccccc2)c2ccccc2n1[C@H]1CCCN(C[C@H]2COc3ccccc3O2)C1 [example 149, 1-((S)-1-(((S)-2,3-Dihydrobenzo[b][1,4]dioxin-2-yl)methyl)piperidin-3-yl)-3-phenyl-1H-benzo[d]imidazol-2(3H)-one]
1730 nM | 78 nM | < 0.1 nM | < 0.01 nM | CC(C)N1C(=O)N([C@H]2CCCN(C[C@H]3COc4ccccc4O3)C2)C[C@@H]1c1ccccc1 [example 7, (S)-1-((S)-1-(((S)-2,3-Dihydrobenzo[b][1,4]dioxin-2-yl)methyl)piperidin-3-yl)-3-isopropyl-4-phenylimidazolidin-2-one]
> 10000 nM | > 449 nM | 6.91 nM | 0.696 nM | CC(=O)NCC1CN([C@H]2CCCN(C[C@H]3COc4ccccc4O3)C2)C(=O)O1 (stereo partly drawn) [example 20, N-((3-((S)-1-(((S)-2,3-Dihydrobenzo[b][1,4]dioxin-2-yl)methyl)piperidin-3-yl)-2-oxooxazolidin-5-yl)methyl)acetamide]
> 10000 nM | > 449 nM | 0.091 nM | 0.009 nM | O=C1[C@H]2CCCC[C@H]2C(=O)N1[C@H]1CCCN(C[C@H]2COc3ccccc3O2)C1 [example 93, (3aR,7aS)-2-((S)-1-(((S)-2,3-Dihydrobenzo[b][1,4]dioxin-2-yl)methyl)piperidin-3-yl)hexahydro-1H-isoindole-1,3(2H)-dione hydrochloride]
> 10000 nM | > 449 nM | 1.54 nM | 0.153 nM | O=C1C(=O)N([C@H]2CCCN(C[C@H]3COc4ccccc4O3)C2)CC1c1ccccc1 (stereo partly drawn) [example 38, 1-((S)-1-(((S)-2,3-Dihydrobenzo[b][1,4]dioxin-2-yl)methyl)piperidin-3-yl)-4-phenylpyrrolidine-2,3-dione]
> 10000 nM | > 449 nM | 0.284 nM | 0.029 nM | CC(C)CN1CC(=O)N([C@H]2CCCN(C[C@H]3COc4ccccc4O3)C2)C1=O [example 107, 3-((S)-1-(((S)-2,3-Dihydrobenzo[b][1,4]dioxin-2-yl)methyl)piperidin-3-yl)-1-isobutylimidazolidine-2,4-dione]
> 10000 nM | > 449 nM | < 0.1 nM | < 0.01 nM | COc1cccc2c1C(=O)N([C@H]1CCCN(C[C@H]3COc4ccccc4O3)C1)C2=O [example 65, 2-((S)-1-(((S)-2,3-Dihydrobenzo[b][1,4]dioxin-2-yl)methyl)piperidin-3-yl)-4-methoxyisoindoline-1,3-dione]
> 10000 nM | > 449 nM | 0.32 nM | 0.03 nM | CC1(C)CC(=O)N([C@H]2CCCN(C[C@H]3COc4ccccc4O3)C2)C1 [example 1, 1-((S)-1-(((S)-2,3-Dihydrobenzo[b][1,4]dioxin-2-yl)methyl)piperidin-3-yl)-4,4-dimethylpyrrolidin-2-one]
> 10000 nM | > 449 nM | 653 nM | 65.7 nM | O=S1(=O)c2ccccc2CN1[C@H]1CCCN(C[C@H]2COc3ccccc3O2)C1 [example 81, 2-((S)-1-(((S)-2,3-Dihydrobenzo[b][1,4]dioxin-2-yl)methyl)piperidin-3-yl)-2,3-dihydrobenzo[d]isothiazole 1,1-dioxide]
> 10000 nM | > 449 nM | 1.38 nM | 0.14 nM | O=C1C(=O)N([C@H]2CCCN(C[C@H]3COc4ccccc4O3)C2)C(=O)N1Cc1cccnc1 [example 143, 1-((S)-1-(((S)-2,3-Dihydrobenzo[b][1,4]dioxin-2-yl)methyl)piperidin-3-yl)-3-(pyridin-3-ylmethyl)imidazolidine-2,4,5-trione]
> 10000 nM | > 449 nM | < 0.1 nM | < 0.01 nM | O=C1c2ccc(F)cc2C(=O)N1[C@H]1CCCN(C[C@H]2COc3ccccc3O2)C1 [example 62, 2-((S)-1-(((S)-2,3-Dihydrobenzo[b][1,4]dioxin-2-yl)methyl)piperidin-3-yl)-5-fluoroisoindoline-1,3-dione]
> 10000 nM | > 449 nM | 1.25 nM | 0.13 nM | O=C1CN(CC2CC2)C(=O)N1[C@H]1CCCN(C[C@H]2COc3ccccc3O2)C1 [example 108, 1-(Cyclopropylmethyl)-3-((S)-1-(((S)-2,3-dihydrobenzo[b][1,4]dioxin-2-yl)methyl)piperidin-3-yl)imidazolidine-2,4-dione]
8890 nM | 399 nM | 1.19 nM | 0.119 nM | C[C@H](c1ccccc1)N1C(=O)C(=O)N([C@H]2CCCN(C[C@H]3COc4ccccc4O3)C2)C1=O [example 128, 1-((S)-1-(((S)-2,3-Dihydrobenzo[b][1,4]dioxin-2-yl)methyl)-piperidin-3-yl)-3-((R)-1-phenylethyl)imidazolidine-2,4,5-trione]
1380 nM | 62 nM | 0.11 nM | 0.01 nM | O=C1NC2(CC2)C(=O)N1[C@H]1CCCN(C[C@H]2COc3ccccc3O2)C1 [example 122, 6-((S)-1-(((S)-2,3-Dihydrobenzo[b][1,4]dioxin-2-yl)methyl)-piperidin-3-yl)-4,6-diazaspiro[2.4]heptane-5,7-dione]
> 10000 nM | > 449 nM | 4.35 nM | 0.438 nM | CN1C(=O)C(=O)N([C@H]2CCCN(C[C@H]3COc4ccccc4O3)C2)C1=O [example 138, 1-((S)-1-(((S)-2,3-Dihydrobenzo[b][1,4]dioxin-2-yl)methyl)piperidin-3-yl)-3-methylimidazolidine-2,4,5-trione]
> 10000 nM | > 449 nM | < 0.01 nM | < 0.001 nM | COc1ccc2c(c1OC)C(=O)N([C@H]1CCCN(C[C@H]3COc4ccccc4O3)C1)C2=O [example 66, 2-((S)-1-(((S)-2,3-Dihydrobenzo[b][1,4]dioxin-2-yl)methyl)piperidin-3-yl)-4,5-dimethoxyisoindoline-1,3-dione hydrochloride]
> 10000 nM | > 449 nM | 10 nM | 1.01 nM | CC(C)N1CC(=O)N([C@H]2CCCN(C[C@H]3COc4ccccc4O3)C2)C1=O [example 104, 3-((S)-1-(((S)-2,3-Dihydrobenzo[b][1,4]dioxin-2-yl)methyl)piperidin-3-yl)-1-isopropylimidazolidine-2,4-dione]
> 10000 nM | > 449 nM | 89.7 nM | 9.03 nM | Cn1ncc2c1C(=O)N([C@H]1CCCN(C[C@H]3COc4ccccc4O3)C1)C2 [example 24, 5-((S)-1-(((S)-2,3-Dihydrobenzo[b][1,4]dioxin-2-yl)methyl)piperidin-3-yl)-1-methyl-4,5-dihydropyrrolo[3,4-c]pyrazol-6(1H)-one]
> 10000 nM | > 449 nM | 132 nM | 13.3 nM | O=C1CN(C2COC2)C(=O)N1[C@H]1CCCN(C[C@H]2COc3ccccc3O2)C1 [example 120, 3-((S)-1-(((S)-2,3-Dihydrobenzo[b][1,4]dioxin-2-yl)methyl)-piperidin-3-yl)-1-(oxetan-3-yl)imidazolidine-2,4-dione]
> 10000 nM | > 449 nM | < 0.1 nM | < 0.01 nM | Clc1ccc2c(c1)ncn2[C@H]1CCCN(C[C@H]2COc3ccccc3O2)C1 [example 91, 5-Chloro-1-((S)-1-(((S)-2,3-dihydrobenzo[b][1,4]dioxin-2-yl)methyl)piperidin-3-yl)-1H-benzo[d]imidazole]
